Test system: miR-430 target site
Experiment: microRNA sensor (Ago2 fused to Adar catalytic subunit)
Format: in vivo, zebrafish
Protocol: In this case, the writer comprises a protein fusion between a protein from the Argonaute family and the catalytic domain of the RNA-editing enzyme ADAR. The recorder must contain the target site of the microRNA of interest, usually the 6 to 8 nucleotides complementary to the miRNA seed region. In the presence of the writer, the recorder and the miRNA of interest, the ternary interaction is recorded as RNA editing in the recorder mRNA. The number of edits will be proportional to the strength of the microRNA-target site interaction. Other variants of this approach include expressing the Ago-Adar writer together with a library of recorders that containing all possible 8-nucleotide sequences as binding site. […]
FIG. 18 depicts a microRNA sensor. miR-430 is a small non-coding regulatory microRNA that recognize their targets mRNAs trough interaction and pairing. miR-430 binds to the effector protein Ago2 and together form a riboprotein complex that recognizes and binds to target mRNAs. miR-430 is the only microRNA expressed during early embryogenesis. […] Only with the tertiary interaction between Ago2, a microRNA, and the target is reconstituted, is editing detected.
Usage of the interactome recorder system to determine microRNA activity in vivo (FIG. 8A). […] In the presence of the writer, the recorder and the miRNA of interest, the ternary interaction is recorded as RNA editing in the recorder mRNA. […]

**Q.** For `CC[C@H](C)[C@@H]1NC(=O)CNC(=O)[C@@H]2Cc3c([nH]c4cc(O)ccc34)[S+]([O-])C[C@@H](NC(=O)CNC1=O)C(=O)N[C@@H](CC(N)=O)C(=O)N1C[C@H](O)C[C@H]1C(=O)N[C@@H]([C@@H](C)[C@@H](O)CO)C(=O)N2` (stereo partly drawn) [alpha-Amanitin], which “editing of the recorder” value (embryos injected with alpha-Amanitin) is on record?
**A.** not when endogenous miR-430 expression is inhibited

**Q.** What about the miR-430 expression (injection, early embryogenesis) of the same molecule?
**A.** prevents its expression
